Measurements taken from patent US12065404B2, “C4-carboxylic acid-substituted tryptamine derivatives and methods of using” (priority 2022, dated 2024).
“And” between values parts separate entries of the source, which are not always exact repeats. Identical values can stand only once. “Also recorded” adds a separate entry of the source.

Key:
[1] = target: T1, 5-HT1A receptor (Homo sapiens, UniProt P08908); test: cAMP-Glo assay of 5-HT1A receptor modulation, +5-HT1A (CHO-K1/5-HT1A/Ga15) vs -5-HT1A (CHO-K1/Ga15) cells; assay type: cell-based; design: dose or concentration left out as unconfirmed; details: +5-HT1A vs -5-HT1A cell cultures stimulated with forskolin, increasing ligand concentrations
T1 construct: host or cells: CHO-K1 (co-expressing Ga15)
T1 sequence (P08908 1-422): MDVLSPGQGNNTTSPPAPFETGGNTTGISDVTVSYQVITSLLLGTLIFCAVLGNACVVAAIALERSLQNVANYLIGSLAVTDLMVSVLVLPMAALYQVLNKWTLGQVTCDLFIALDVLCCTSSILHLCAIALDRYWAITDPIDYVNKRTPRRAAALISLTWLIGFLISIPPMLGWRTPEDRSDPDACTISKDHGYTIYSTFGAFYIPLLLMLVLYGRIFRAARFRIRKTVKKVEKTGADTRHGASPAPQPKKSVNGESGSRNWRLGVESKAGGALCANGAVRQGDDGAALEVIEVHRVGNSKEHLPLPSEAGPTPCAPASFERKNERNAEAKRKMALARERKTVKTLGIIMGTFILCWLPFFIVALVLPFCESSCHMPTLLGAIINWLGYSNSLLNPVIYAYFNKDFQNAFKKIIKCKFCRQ

[2] = target: T2, neuronal 5-HT2A receptor (5-HT2AR) (Mus musculus, UniProt P35363); test: Drug-induced Head Twitch Response (HTR) in mice; assay type: in vivo, C57BL/6-Elite mice; details: 1 mg/kg i.p., 15-to-30-minute window post-drug, relative to vehicle-treated control mice
T2 construct: HTR was measured in mice treated with a control and test compounds; tissue Charles River; host or cells: live C57BL/6-Elite mice (neuronal receptor)

[3] = Mouse pharmacokinetic (PK) study, parent compound and psilocin metabolite in plasma; assay type: in vivo, C57Bl/6 mice
Description: Briefly, the procedure was as follows. […] 19, 2022.

[4] = administered compound itself in plasma, 1 mg/kg i.v., individual animals, 1 mg/kg

T2 sequence (P35363 whole entry): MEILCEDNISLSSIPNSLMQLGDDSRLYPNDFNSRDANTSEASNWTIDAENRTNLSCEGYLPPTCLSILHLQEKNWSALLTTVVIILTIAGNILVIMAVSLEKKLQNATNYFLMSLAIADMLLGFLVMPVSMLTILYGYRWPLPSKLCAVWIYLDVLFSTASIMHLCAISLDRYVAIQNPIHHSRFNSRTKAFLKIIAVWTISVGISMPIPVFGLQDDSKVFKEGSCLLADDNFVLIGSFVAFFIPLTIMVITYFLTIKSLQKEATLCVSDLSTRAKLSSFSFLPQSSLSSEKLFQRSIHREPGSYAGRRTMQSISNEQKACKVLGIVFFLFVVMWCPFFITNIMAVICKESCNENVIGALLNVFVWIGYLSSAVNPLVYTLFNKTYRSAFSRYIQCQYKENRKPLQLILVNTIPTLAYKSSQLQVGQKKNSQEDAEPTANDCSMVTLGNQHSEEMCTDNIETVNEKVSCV

In the case of `CN(C)CCc1c[nH]c2cccc(OC(=O)c3cccc4c3OCCO4)c12` [C(XX)], the “5-HT1A receptor modulation (reduction of cAMP levels)” value [1] is reported as “significant receptor modulation”, the “Incidences of Head Twitch Response (HTR)” value [2] is reported as “Elevated incidences of HTR” and the “Plasma concentration of C(XX)” value ([3]; 1 mg/kg i.v. C(XX), 5 min, individual animals) is reported as 152 ng/mL and 105 ng/mL. The “Plasma concentration of C(XX)” value ([3]; 1 mg/kg i.v. C(XX), 0.25 h, individual animals) was 84.7 ng/mL and 60.3 ng/mL, the “Plasma concentration of C(XX)” value ([3]; 1 mg/kg i.v. C(XX), 0.5 h, individual animals) was 37.9 ng/mL and 32.1 ng/mL and the “Plasma concentration of C(XX)” value ([3]; 1 mg/kg i.v. C(XX), 1 h, individual animals) was 8.13 ng/mL and 8.22 ng/mL. For the same molecule, the “Plasma concentration of C(XX)” value ([3]; 1 mg/kg i.v. C(XX), 2 h, individual animals) was 1.03 ng/mL and 1.14 ng/mL, the “Plasma concentration of C(XX)” value ([3]; 1 mg/kg i.v. C(XX), 4 h, individual animals) was 0.137 ng/mL and 0.148 ng/mL and the “Plasma concentration of C(XX)” value ([3]; 1 mg/kg i.v. C(XX), 6 h, individual animals) was “BLQ (BLQ denotes below the lower limit of quantitation (0.25 ng/mL).)”. The “Plasma concentration of psilocin” value ([3]; 1 mg/kg i.v. C(XX), 8 h, animals M49-M51) was “BLQ (BLQ denotes below the lower limit of quantitation (0.5 ng/mL).)”, the “Plasma concentration of C(XX)” value ([3]; 1 mg/kg i.v. C(XX), 8 h, individual animals) was “BLQ (BLQ denotes below the lower limit of quantitation (0.25 ng/mL).) and No (2×)” and the “Plasma concentration of C(XX)” value ([3]; 1 mg/kg oral C(XX), 0.25 h, individual animals) was 0.459 ng/mL and 0.648 ng/mL. The “Plasma concentration of C(XX)” value ([3]; 1 mg/kg oral C(XX), 0.5 h, individual animals) was 0.509 ng/mL and 0.648 ng/mL, the “Plasma concentration of C(XX)” value ([3]; 1 mg/kg oral C(XX), 1 h, individual animals) was 0.286 ng/mL and 0.199 ng/mL and the “Plasma concentration of C(XX)” value ([3]; 1 mg/kg oral C(XX), 2 h, individual animals) was “BLQ (BLQ denotes below the lower limit of quantitation (0.25 ng/mL).)”. The “Plasma concentration of C(XX)” value ([3]; 1 mg/kg oral C(XX), 4 h, individual animals) was “BLQ (BLQ denotes below the lower limit of quantitation (0.25 ng/mL).)”, the “Plasma concentration of C(XX)” value ([3]; 1 mg/kg oral C(XX), 6 h, individual animals) was “No Peak; also recorded: BLQ (BLQ denotes below the lower limit of quantitation (0.25 ng/mL).)” and the “Plasma concentration of C(XX)” value ([3]; 1 mg/kg oral C(XX), 8 h, individual animals) was “No Peak; also recorded: BLQ (BLQ denotes below the lower limit of quantitation (0.25 ng/mL).)”. The “Plasma concentration of psilocin” value ([3]; 1 mg/kg oral C(XX), 24 h, animals M52-M54) was “BLQ (BLQ denotes below the lower limit of quantitation (0.5 ng/mL).)”, the “Plasma concentration of C(XX)” value ([3]; 1 mg/kg oral C(XX), 24 h, individual animals) was “No Peak” and the “Plasma concentration of C(XX)” value ([3]; 3 mg/kg oral C(XX), 0.25 h, individual animals) was 1.72 ng/mL and 1.93 ng/mL. For the same molecule, the “Plasma concentration of C(XX)” value ([3]; 3 mg/kg oral C(XX), 0.5 h, individual animals) was 1.13 ng/mL and 1.43 ng/mL, the “Plasma concentration of C(XX)” value ([3]; 3 mg/kg oral C(XX), 1 h, individual animals) was 0.752 ng/mL and 0.535 ng/mL and the “Plasma concentration of C(XX)” value ([3]; 3 mg/kg oral C(XX), 2 h, individual animals) was 0.244 ng/mL and 0.156 ng/mL. For the same molecule, the “Plasma concentration of C(XX)” value ([3]; 3 mg/kg oral C(XX), 4 h, individual animals) was “No Peak; also recorded: BLQ (BLQ denotes below the lower limit of quantitation (0.25 ng/mL).)”, the “Plasma concentration of C(XX)” value ([3]; 3 mg/kg oral C(XX), 6 h, individual animals) was “No Peak; also recorded: BLQ (BLQ denotes below the lower limit of quantitation (0.25 ng/mL).)” and the “Plasma concentration of C(XX)” value ([3]; 3 mg/kg oral C(XX), 8 h, individual animals) was “No Peak; also recorded: BLQ (BLQ denotes below the lower limit of quantitation (0.25 ng/mL).)”. For the same molecule, the “Plasma concentration of psilocin” value ([3]; 3 mg/kg oral C(XX), 24 h, animals M55-M57) was “BLQ (BLQ denotes below the lower limit of quantitation (0.5 ng/mL).)”, the “Plasma concentration of C(XX)” value ([3]; 3 mg/kg oral C(XX), 24 h, individual animals) was “No Peak” and the “F(%)” value ([3]; 3 mg/kg oral, no footnote on basis (Table 36B), individual animals) was 1.08% and 0.962%. For the same molecule, the “Plasma concentration of C(XX)” value ([3]; 10 mg/kg oral C(XX), 0.25 h, individual animals) was 2.99 ng/mL and 9.12 ng/mL and 10.3 ng/mL, the “Plasma concentration of C(XX)” value ([3]; 10 mg/kg oral C(XX), 0.5 h, individual animals) was 2.79 ng/mL and 3.87 ng/mL and 5.79 ng/mL and the “Plasma concentration of C(XX)” value ([3]; 10 mg/kg oral C(XX), 1 h, individual animals) was 1.69 ng/mL and 2.74 ng/mL. For the same molecule, the “Plasma concentration of C(XX)” value ([3]; 10 mg/kg oral C(XX), 2 h, individual animals) was 0.707 ng/mL and 0.533 ng/mL and 1.08 ng/mL, the “Plasma concentration of C(XX)” value ([3]; 10 mg/kg oral C(XX), 4 h, individual animals) was “BLQ (BLQ denotes below the lower limit of quantitation (0.25 ng/mL).) and 0.302 ng/mL” and the “Plasma concentration of C(XX)” value ([3]; 10 mg/kg oral C(XX), 6 h, individual animals) was 0.524 ng/mL and BLQ (BLQ denotes below the lower limit of quantitation (0.25 ng/mL).) and 0.196 ng/mL. For the same molecule, the “Plasma concentration of C(XX)” value ([3]; 10 mg/kg oral C(XX), 8 h, individual animals) was “BLQ (BLQ denotes below the lower limit of quantitation (0.25 ng/mL).) and 0.185 ng/mL”, the “Plasma concentration of psilocin” value ([3]; 10 mg/kg oral C(XX), 24 h, animals M58-M60) was “BLQ (BLQ denotes below the lower limit of quantitation (0.5 ng/mL).)” and the “Plasma concentration of C(XX)” value ([3]; 10 mg/kg oral C(XX), 24 h, individual animals) was “No Peak”. The AUC0-inf [3, 4] was 62.5 ng·h/mL and 48.1 ng·h/mL, the AUC0-inf/Dose [3, 4] was 48.3 kg·ng·h/mL/mg and 62.5 kg·ng·h/mL/mg and 48.1 kg·ng·h/mL/mg and the AUC0-tlast [3, 4] was 62.4 ng·h/mL and 48.0 ng·h/mL. The AUC0-tlast/Dose [3, 4] was 48.1 kg·ng·h/mL/mg and 62.4 kg·ng·h/mL/mg and 48.0 kg·ng·h/mL/mg, the “Apparent t1/2” value [3, 4] was 31.7 min and 32.2 min and the C0 [3, 4] was 204 ng/mL and 139 ng/mL. For the same molecule, the CL [3, 4] was 266.52 mL/min/kg and 346.28 mL/min/kg.
